In US20250387398A1, “NEW HIGH-EFFICIENCY ANTIMICROBIAL COMPOSITION” (CM4CURE S.A., priority 2023, published 2025):
Like-named read-outs stand apart in the source and are kept apart here.

Experiments:
[1] = test system: Pseudomonas aeruginosa (ATCC 15442); test: Real-time microcalorimetric measurement of metabolic activity (Calscreener); type: cell-based
Protocol: Pseudomonas aeruginosa (ATCC 15442) was grown overnight in TSB (tryptic soy broth) medium, before being diluted 1×10^7 fold in fresh TSB. Subsequently […] aliquots of diluted bacteria suspensions were respectively supplemented with 1, 2, 4, 6, 12 and 24 mg/L of chlorhexidine (digluconate solution, 20% in H2O, Merck). The aqueous solution of chlorhexidine was kept refrigerated according to the manufacturer's technical sheet. Chlorhexidine or mQH2O as a vehicle were added to the bacterial suspensions to obtain the given concentrations followed by a brief vortexing. Bacterial aliquots were then distributed in the dedicated non-activated inserts of a 48-well plate and grown for 24 h or more under static conditions at 37 C using Calscreener technology to measure bacterial growth and metabolic activity in Real-Time as described in https://cordis.europa.eu/project/id/784514.
For the study of the combination of chlorhexidine and triafluocyl aforementioned diluted bacterial suspensions were supplemented with either chlorhexidine alone (1, 2, 4, 6, 12 mg/L) or mixed with triafluocyl (20 mg/L, Polpharma). Triafluocyl was stored in absolute ethanol in the refrigerator at a concentration of 3 mg/mL. […]
FIG. 1, illustrates a real-time microcalorimetric measurements of bacterial metabolic activity expressed as the heat flow, providing P. aeruginosa as an example. […]

[2] = test system: Staphylococcus aureus (MRSA, ATCC 6538); test: as above; type: cell-based
Protocol: Staphylococcus aureus (MRSA, ATCC 6538) was grown overnight in TSB (tryptic soy broth) medium, before being diluted 1×10^6 fold in fresh TSB. Subsequently […] aliquots of diluted bacteria suspensions were respectively supplemented with 1 and 2 mg/L of chlorhexidine (digluconate solution, 20% in H2O, Merck). […] The aqueous solution of chlorhexidine and the ethanol-based solution of triafluocyl were kept refrigerated. Chlorhexidine, triafluocyl or both, and ethanol as a vehicle were added to the bacterial suspensions to obtain the given concentrations followed by a brief vortexing. Bacterial aliquots were then distributed in the dedicated non-activated inserts of a 48-well plate and grown for 24 h or more under static conditions at 37 C using Calscreener technology to measure bacterial growth and metabolic activity in Real-Time as described in https://cordis.europa.eu/project/id/784514.
In FIG. 3, one sees the real-time microcalorimetric measurements of bacterial metabolic activity expressed as the heat flow, providing S. aureus as an example of Gram-positive bacteria strain. The line A stands for control bacteria with a vehicle at 0.66% ethanol in TSB, whereas the line B represents bacteria treated respectively with 1 mg/L of triafluocyl; C—1 mg/L of chlorhexidine; D—2 mg/L of chlorhexidine; and E—1 mg/L of chlorhexidine with 1 mg/L of triafluocyl.
Staphylococcus aureus (MRSA, ATCC 6538) was grown overnight in TSB (tryptic soy broth) medium, before being diluted 1×10^6 fold in fresh TSB. Subsequently […] aliquots of diluted bacteria suspensions were respectively supplemented with 0.25, 0.5 and 1 μg/mL of chlorhexidine (digluconate solution, 20% in H2O, Merck) or alexidine dihydrochloride (stock solution of 3 mg/mL in ethanol, Merck).
The aqueous solution of chlorhexidine and the ethanol-based solution of alexidine were kept refrigerated. Chlorhexidine, alexidine, and ethanol as a vehicle were added to the bacterial suspensions to obtain the given concentrations followed by a brief vortexing. Bacterial aliquots were then distributed in the dedicated non-activated inserts of a 48-well plate and grown for 24 h or more under static conditions at 37 C using Calscreener technology to measure bacterial growth and metabolic activity in Real-Time as described in https://cordis.europa.eu/project/id/784514.
In FIG. 4 the real-time microcalorimetric measurements of bacterial metabolic activity is expressed as the heat flow, providing S. aureus as an example. The line A stands for control bacteria with a vehicle (ethanol), whereas the line B represents bacteria treated respectively with 0.25 mg/mL of chlorhexidine; C—0.5 mg/mL of chlorhexidine; D—1 mg/mL of chlorhexidine; E—0.25 mg/mL of alexidine; F −0.5 mg/mL of alexidine; and G—1 mg/mL of alexidine.
Staphylococcus aureus (MRSA, ATCC 6538) was grown overnight in TSB (tryptic soy broth) medium, before being diluted 1×10^6 fold in fresh TSB. Subsequently […] aliquots of diluted bacteria suspensions were respectively supplemented with […] of alexidine dihydrochloride (stock solution of 3 mg/mL in ethanol, Merck). […] The ethanol-based solutions of alexidine and fluometacyl were stored at −20° C. […]
In FIG. 5 real-time microcalorimetric measurements of bacterial metabolic activity is expressed as the heat flow, providing S. aureus as an example. […]

[3] = background, cited from earlier work
[4] = test system: Staphylococcus aureus MRSA; conditions: cited from earlier work
Fusobacterium nucleatum = conditions: cited from earlier work
Streptococcus mutans = conditions: cited from earlier work
[5] = test system: Lactobacillus acidophilus; conditions: cited from earlier work
Candida tropicalis = conditions: cited from earlier work
Candida krusei = conditions: cited from earlier work
Porphyromonas gingivalis = conditions: cited from earlier work
Candida albicans (CA) = test: MIC in monotherapy and in combination (ISO standard 20776-1); type: cell-based
Description: (§1) Summary Of MIC values for Fluometacyl (FLC)+Chlorhexidine (CHX) Tested Against MRSA, Enterococcusfaecalis (VRE), Pseudomonas aeruginosa (PA) and Candida albicans (CA).
(§2) By Minimum Inhibitory Concentration (MIC) one means the lowest concentration of antimicrobial that prevents visible growth of a microorganism (determined according to ISO standard 20776-1).
(§3) This finds an implication in combining many known antimicrobials together rather than discovering new chemical entities.

[6] = test system: Pseudomonas aeruginosa (PA); test: as above; type: cell-based
Description: as §1, §2, §3

Q: For CCCSc1nc(N[C@@H]2C[C@H]2c2ccc(F)c(F)c2)c2nnn([C@@H]3C[C@H](OCCO)[C@@H](O)[C@H]3O)c2n1 [Triafluocyl, (1S,2S,3R,5S)-3-[7-[(1R,2S)-2-(3,4-difluorophenyl)cyclopropylamino]-5-(propylthio)-3H-[1,2,3]-triazolo[4,5-d]pyrimidin-3-yl]-5-(2-hydroxyethoxy)-1,2-cyclopentanediol], which “effect on growth (heat flow)” value ([1]; triafluocyl 20 mg/L, FIG. 2) is on record?
A: Its value is “does not inhibit the growth”.

Q: What about the “effect on growth (heat flow)” value ([2]; triafluocyl 1 mg/L, FIG. 3) of the same compound?
A: Its value is “doesn't affect the growth”.

Q: And the “solubility in an aqueous environment or aqueous medium” value [3]?
A: Its value is “generally not soluble”.

Q: With [H]/N=C(\N/C(=N/[H])NCCCCCCNC(=N)NC(=N)Nc1ccc(Cl)cc1)Nc1ccc(Cl)cc1 [Chlorhexidine, chlorhexidine] as the compound, how does the MIC of chlorhexdine [4] read?
A: The MIC of chlorhexdine was 2 to 8 µg/mL.

Q: And the MIC of chlorhexdine ([4]; listed as chlorexhidrine)?
A: The MIC of chlorhexdine was 1 to 8 µg/mL.

Q: And the MIC of chlorhexdine ([4]; listed as chlorhexidrine)?
A: The MIC of chlorhexdine was 1 to 8 µg/mL.

Q: What about the MIC of chlorhexdine (Fusobacterium nucleatum) of the same compound?
A: The MIC of chlorhexdine was 1.8 µg/mL.

Q: And the MIC of chlorhexdine (Streptococcus mutans)?
A: Its MIC of chlorhexdine is 0.9 to 4 µg/mL.

Q: And the “effect on growth (heat flow)” value ([2]; chlorhexidine 1 mg/L, FIG. 3)?
A: Its value is “strong shift in a metabolic activity”.

Q: And the “effect on growth (heat flow)” value ([2]; chlorhexidine 1 mg/mL, FIG. 4)?
A: The value was “strong shift in a metabolic activity”.

Q: What about the MIC of chlorhexdine [5] of the same compound?
A: The MIC of chlorhexdine was 0.5 to 2 µg/mL.

Q: What about the solubility in water ([3]; chlorhexidine base) of the same compound?
A: The solubility in water was “insoluble in water”.

Q: What about the MIC of chlorhexdine (Candida tropicalis) of the same compound?
A: Its MIC of chlorhexdine is 75 µg/mL.

Q: What about the MIC of chlorhexdine (Candida krusei) of the same compound?
A: The MIC of chlorhexdine was 150 µg/mL.

Q: And the MIC of chlorhexdine (Porphyromonas gingivalis)?
A: Its MIC of chlorhexdine is 0.9 µg/mL.

Q: With alexidine as the compound, how does the “effect on growth (heat flow)” value ([1]; alexidine 4 mg/mL, FIG. 6) read?
A: The value was “strong growth inhibition”.

Q: What about the “effect on growth (heat flow)” value ([2]; alexidine 1 mg/mL, FIG. 4) of the same compound?
A: Its value is “full growth inhibition”.

Q: What about the “effect on growth (heat flow), compared with chlorhexidine” value ([2]; alexidine 0.25 and 0.5 mg/mL, FIG. 4) of the same compound?
A: The value was “noticeably stronger effect”.

Q: With CCCSc1nc(N[C@@H]2C[C@H]2c2ccc(F)c(F)c2)c2nnn([C@@H]3C[C@H](O)[C@@H](O)[C@H]3O)c2n1 [Fluometacyl, (1S,2R,3S,4R)-4-[7-[[(1R,2S)-2-(3,4-Difluorophenyl)cyclopropyl]amino]-5-(propylthio)-3H-1,2,3-triazolo[4,5-d]pyrimidin-3-yl]-1,2,3-cyclopentanetriol] as the compound, how does the “MIC Monotherapy (X)” value (Candida albicans (CA)) read?
A: Its value is “Not detected”.

Q: And the “MIC Monotherapy (X)” value [6]?
A: The value was “Not detected”.

Q: And the “solubility in an aqueous environment or aqueous medium” value [3]?
A: Its value is “generally not soluble”.
